The text below walks through data of publication PMC8213057, “Targeting ALK2: An Open Science Approach to Developing Therapeutics for the Treatment of Diffuse Intrinsic Pontine Glioma” (Journal of Medicinal Chemistry, 2020).

“And” between values parts separate entries of the source, which are not always exact repeats. Identical values can stand only once.

One assay addresses T1, IKKe/IKBKE (Homo sapiens, UniProt Q14164).
T1 sequence (Q14164 1-716): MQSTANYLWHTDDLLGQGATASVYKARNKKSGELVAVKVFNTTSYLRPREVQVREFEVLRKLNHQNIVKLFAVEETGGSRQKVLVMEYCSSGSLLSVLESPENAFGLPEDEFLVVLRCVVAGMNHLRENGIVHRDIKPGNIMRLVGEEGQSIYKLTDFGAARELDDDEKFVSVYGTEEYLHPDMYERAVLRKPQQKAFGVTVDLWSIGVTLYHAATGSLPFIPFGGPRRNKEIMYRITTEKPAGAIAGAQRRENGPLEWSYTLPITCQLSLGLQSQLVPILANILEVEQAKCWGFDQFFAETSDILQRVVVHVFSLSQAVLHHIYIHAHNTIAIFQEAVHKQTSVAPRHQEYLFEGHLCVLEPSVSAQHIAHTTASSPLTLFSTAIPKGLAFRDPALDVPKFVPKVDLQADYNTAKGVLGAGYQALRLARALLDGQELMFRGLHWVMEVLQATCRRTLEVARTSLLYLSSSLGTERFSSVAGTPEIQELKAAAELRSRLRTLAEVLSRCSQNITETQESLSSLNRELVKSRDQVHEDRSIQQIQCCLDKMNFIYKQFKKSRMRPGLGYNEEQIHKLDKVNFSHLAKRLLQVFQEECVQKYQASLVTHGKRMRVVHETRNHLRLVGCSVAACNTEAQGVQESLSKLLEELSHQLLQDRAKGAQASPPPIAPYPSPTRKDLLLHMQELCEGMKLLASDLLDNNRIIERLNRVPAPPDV
As to the kind of experiment: biochemical. The conditions noted are these: read-out: % enzyme activity, 1 μM; Run 1, Run 2.

In the next assay the target is CDK4/cyclin D1 (Homo sapiens, UniProt P11802). Particulars: 1 μM; Run 1, Run 2.
Chain of CDK4/cyclin D1 (P11802 whole entry): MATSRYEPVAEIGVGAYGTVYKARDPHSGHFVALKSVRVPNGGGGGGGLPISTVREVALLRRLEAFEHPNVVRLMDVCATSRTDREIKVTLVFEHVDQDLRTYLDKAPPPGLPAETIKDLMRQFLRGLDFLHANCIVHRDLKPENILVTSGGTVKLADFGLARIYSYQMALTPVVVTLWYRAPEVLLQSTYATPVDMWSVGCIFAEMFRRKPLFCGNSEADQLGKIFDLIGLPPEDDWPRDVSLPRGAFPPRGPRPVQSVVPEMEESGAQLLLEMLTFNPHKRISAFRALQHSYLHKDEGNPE
Chain of CDK4/cyclin D1 (P24385 whole entry partner): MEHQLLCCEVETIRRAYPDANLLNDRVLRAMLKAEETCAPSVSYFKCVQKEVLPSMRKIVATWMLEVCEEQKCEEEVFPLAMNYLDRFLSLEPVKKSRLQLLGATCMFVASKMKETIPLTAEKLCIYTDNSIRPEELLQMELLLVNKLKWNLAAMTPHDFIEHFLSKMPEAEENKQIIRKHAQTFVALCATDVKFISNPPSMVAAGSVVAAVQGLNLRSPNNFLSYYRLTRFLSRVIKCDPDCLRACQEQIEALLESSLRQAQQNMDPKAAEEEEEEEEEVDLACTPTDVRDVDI
A further assay concerns the target c-Src (Homo sapiens, UniProt P12931). As to the kind of experiment: biochemical. Particulars: read-out: % enzyme activity, 1 μM; Run 1, Run 2.
The target in the next assay is MNK2 (Homo sapiens, UniProt Q9HBH9). As to the kind of experiment: biochemical. The conditions noted are these: read-out: % enzyme activity, 1 μM; Run 1, Run 2.
Chain of MNK2 (Q9HBH9 whole entry): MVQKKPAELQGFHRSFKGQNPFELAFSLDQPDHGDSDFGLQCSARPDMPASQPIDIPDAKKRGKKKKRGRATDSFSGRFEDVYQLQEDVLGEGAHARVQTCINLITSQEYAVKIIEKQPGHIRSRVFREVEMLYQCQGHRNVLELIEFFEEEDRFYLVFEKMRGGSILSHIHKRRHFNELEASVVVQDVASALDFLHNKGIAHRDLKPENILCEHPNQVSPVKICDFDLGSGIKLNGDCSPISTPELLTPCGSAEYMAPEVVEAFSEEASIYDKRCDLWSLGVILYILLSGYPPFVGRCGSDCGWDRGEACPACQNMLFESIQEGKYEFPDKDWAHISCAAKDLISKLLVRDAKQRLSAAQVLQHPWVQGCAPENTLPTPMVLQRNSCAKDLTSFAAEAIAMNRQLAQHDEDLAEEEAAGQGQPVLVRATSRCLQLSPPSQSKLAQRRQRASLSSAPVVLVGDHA
The next assay concerns the target T2, PKCiota (Homo sapiens, UniProt P41743).
T2 sequence (P41743 1-596): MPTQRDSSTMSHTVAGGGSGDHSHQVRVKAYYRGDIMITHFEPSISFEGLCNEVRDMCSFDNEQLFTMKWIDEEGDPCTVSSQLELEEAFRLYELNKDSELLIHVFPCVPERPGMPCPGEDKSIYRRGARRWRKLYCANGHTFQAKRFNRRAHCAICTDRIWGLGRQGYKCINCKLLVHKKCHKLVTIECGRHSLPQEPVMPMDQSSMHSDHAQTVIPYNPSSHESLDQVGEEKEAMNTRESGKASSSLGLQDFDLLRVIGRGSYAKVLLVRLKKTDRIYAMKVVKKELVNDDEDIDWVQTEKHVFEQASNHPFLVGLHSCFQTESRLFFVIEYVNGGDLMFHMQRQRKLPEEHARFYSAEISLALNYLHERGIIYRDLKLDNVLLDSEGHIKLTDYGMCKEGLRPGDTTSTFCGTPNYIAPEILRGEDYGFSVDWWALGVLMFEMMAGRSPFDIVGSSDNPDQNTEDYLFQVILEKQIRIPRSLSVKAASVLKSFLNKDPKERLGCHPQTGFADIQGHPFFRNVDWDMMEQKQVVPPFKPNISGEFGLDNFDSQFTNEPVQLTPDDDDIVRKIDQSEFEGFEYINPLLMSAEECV
As to the kind of experiment: biochemical. Particulars: read-out: % enzyme activity, 1 μM; Run 1, Run 2.

The next assay concerns the target T3, SNARK/NUAK2 (Homo sapiens, UniProt Q9H093).
T3 sequence (Q9H093 1-628): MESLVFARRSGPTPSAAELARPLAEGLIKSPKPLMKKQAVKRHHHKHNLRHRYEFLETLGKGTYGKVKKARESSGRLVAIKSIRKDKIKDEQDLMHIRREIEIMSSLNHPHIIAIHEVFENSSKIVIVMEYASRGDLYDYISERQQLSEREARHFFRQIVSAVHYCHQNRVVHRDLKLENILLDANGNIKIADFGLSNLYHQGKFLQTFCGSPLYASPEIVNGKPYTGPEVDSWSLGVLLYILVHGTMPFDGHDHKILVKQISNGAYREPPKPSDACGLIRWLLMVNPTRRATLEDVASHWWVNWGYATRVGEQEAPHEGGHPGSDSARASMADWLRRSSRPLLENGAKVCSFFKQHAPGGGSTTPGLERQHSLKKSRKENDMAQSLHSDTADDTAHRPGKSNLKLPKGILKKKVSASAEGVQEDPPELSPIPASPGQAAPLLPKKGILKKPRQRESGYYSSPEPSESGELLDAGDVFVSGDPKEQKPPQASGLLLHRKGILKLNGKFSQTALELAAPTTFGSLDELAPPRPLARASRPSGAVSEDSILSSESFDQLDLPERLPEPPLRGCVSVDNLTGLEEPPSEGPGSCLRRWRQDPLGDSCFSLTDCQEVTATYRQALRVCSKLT
As to the kind of experiment: biochemical. Particulars: read-out: % enzyme activity, 1 μM; Run 1, Run 2.

Another assay has as its target CDK8/cyclin C (Homo sapiens, UniProt P49336). Particulars: 1 μM; Run 1, Run 2.

Chain of c-Src (P12931 whole entry): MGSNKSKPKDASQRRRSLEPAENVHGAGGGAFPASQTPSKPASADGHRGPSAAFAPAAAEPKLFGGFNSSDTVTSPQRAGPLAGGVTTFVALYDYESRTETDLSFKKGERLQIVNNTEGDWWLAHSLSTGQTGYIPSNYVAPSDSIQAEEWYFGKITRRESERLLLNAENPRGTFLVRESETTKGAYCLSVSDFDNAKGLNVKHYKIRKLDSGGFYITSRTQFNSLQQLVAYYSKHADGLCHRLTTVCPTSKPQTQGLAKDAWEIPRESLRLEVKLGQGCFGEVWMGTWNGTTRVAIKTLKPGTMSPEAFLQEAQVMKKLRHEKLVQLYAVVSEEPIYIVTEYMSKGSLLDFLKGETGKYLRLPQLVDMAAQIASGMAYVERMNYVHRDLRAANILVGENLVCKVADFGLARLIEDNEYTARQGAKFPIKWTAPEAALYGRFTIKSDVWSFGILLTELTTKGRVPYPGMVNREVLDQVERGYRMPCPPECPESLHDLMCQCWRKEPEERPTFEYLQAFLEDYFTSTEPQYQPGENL
Chain of CDK8/cyclin C (P49336 whole entry): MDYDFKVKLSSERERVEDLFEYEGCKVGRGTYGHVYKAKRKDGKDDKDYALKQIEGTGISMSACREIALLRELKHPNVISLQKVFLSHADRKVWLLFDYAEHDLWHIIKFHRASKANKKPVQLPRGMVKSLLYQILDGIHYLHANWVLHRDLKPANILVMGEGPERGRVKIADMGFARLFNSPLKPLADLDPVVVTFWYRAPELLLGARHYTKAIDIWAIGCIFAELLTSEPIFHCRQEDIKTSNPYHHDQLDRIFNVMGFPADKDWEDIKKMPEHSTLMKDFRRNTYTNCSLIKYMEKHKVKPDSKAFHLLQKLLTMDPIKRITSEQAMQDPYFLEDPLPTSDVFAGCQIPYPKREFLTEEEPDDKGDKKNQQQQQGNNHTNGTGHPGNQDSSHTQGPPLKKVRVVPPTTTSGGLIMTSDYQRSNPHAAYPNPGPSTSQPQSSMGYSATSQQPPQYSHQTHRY
Chain of CDK8/cyclin C (P24863 whole entry partner): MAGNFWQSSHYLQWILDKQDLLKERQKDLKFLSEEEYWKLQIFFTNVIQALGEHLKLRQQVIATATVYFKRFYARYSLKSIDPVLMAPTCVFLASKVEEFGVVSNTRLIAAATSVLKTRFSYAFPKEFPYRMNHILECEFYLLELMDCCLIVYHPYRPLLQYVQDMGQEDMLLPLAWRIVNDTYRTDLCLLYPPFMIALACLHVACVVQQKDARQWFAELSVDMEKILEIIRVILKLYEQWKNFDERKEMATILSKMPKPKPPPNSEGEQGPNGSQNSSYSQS

As for `COc1cc(-c2cncc(-c3ccc(N4CCN(C)CC4)cc3)c2C)cc(F)c1C(N)=O` [Compound 26a, 2-Fluoro-6-methoxy-4-(4-methyl-5-(4-(4-methylpiperazin-1-yl)phenyl)pyridin-3-yl)benzamide], the remaining activity at 1 µM at IKKe/IKBKE was determined as 91.1%; on c-Src it was 96.6%; on MNK2, 48.2%; on PKCiota it was 107%; on SNARK/NUAK2 it was 91.6%. For the same compound, the figures for the “% enzyme activity” value on CDK4/cyclin D1 and on CDK8/cyclin C were 98.46% and 83.64%, respectively. Also, the % enzyme activity at 1 μM with ARAF was 29.3% and 28.8%.

Take `COc1cc(-c2cncc(-c3ccc(N4C[C@@H](C)N(C)[C@@H](C)C4)cc3)c2C)cc(F)c1C(N)=O` [Compound 26c, 2-Fluoro-6-methoxy-4-(4-methyl-5-(4-((3R,5S)-3,4,5-trimethylpiperazin-1-yl)phenyl)pyridin-3-yl)benzamide]: the remaining activity at 1 µM at IKKe/IKBKE amounted to 96.7%; at c-Src, 100%; on MNK2 it was 70.8%; at PKCiota it was 99.1%; on SNARK/NUAK2, 94%. In addition, the “% enzyme activity” value is on record as 100.29% on CDK4/cyclin D1 and 92.05% at CDK8/cyclin C. The % enzyme activity at 1 μM in the assay with ARAF was 48.1% and 43.3%.
